In paper PMC11232398, “Antimalarial activity of cecropin antimicrobial peptides derived from Anopheles mosquitoes” (Antimicrobial Agents and Chemotherapy, 2024):
Like-named read-outs stand apart in the source and are kept apart here.

Assays:
[1] = system: P. falciparum 3D7 (sensitive strain); experiment: In vitro antimalarial activity, 3-day inhibition assay; type: cell-based, Plasmodium falciparum
Experimental: Blood stages of the laboratory clones P. falciparum 3D7 (sensitive strain), P. falciparum 803 (artemisinin-resistant strain), and P. falciparum Dd2 (chloroquine-resistant strain) were cultured in vitro according to the method of Trager and Jensens with minor modifications ([37]). Briefly, cultures were maintained in O-positive human erythrocytes (RBCs) as host cells at 2% hematocrit and maintained in complete medium (CM) [RPMI-1640 culture medium supplemented with NaHCO3 (2 mg/mL), hypoxanthine (50 µg/mL), HEPES (5.96 mg/mL), albumax II (1%), and gentamicin (40 µg/mL)]. The cultures were diluted to 1% parasitemia and 2% hematocrit in CM and incubated in a humidified atmosphere with 5% O2, 5% CO2, and 90% N2 at 37°C. Prior to experiments, the cultures were highly synchronized for ring stages using 5% sorbitol twice at a 40-h interval. Briefly, ring stage cultures were centrifuged and the pellet was washed once in incomplete medium (ICM, RPMI-1640 without addition). Then, the pellet was resuspended in 5% sorbitol and incubated at 37°C for 10 min. After incubation, the suspension was centrifuged and the pellet was washed once and resuspended in medium. The development of the parasite was observed using light microscopy, and parasitemia was determined by counting at least 10,000 RBCs on Giemsa’s solution-stained thin blood smears.
Highly synchronous ring stage parasites were used to investigate the in vitro antimalarial activity of the peptides. For preliminary screening of in vitro antimalarial activity, a 3-day inhibition assay was used to test the antimalarial activity of An-cecA, An-cecB, and An-cecC. […] For IC50 assay, a series of concentrations of peptides were added to the parasite culture. The concentrations of An-cecB were 5, 15, 20, 25, 30, 35, and 40 µM, while those of An-cecB-1 were 20, 30, 40, 50, 60, 70, 80, and 90 µM. After 72 hours of incubation, the antimalarial effects of peptides were estimated. Thin blood films stained with Giemsa’s solution were counted under a microscope. The parasitemia of cultures treated with peptides was compared with that of control. IC50 was calculated by GraphPad Prism.

[2] = system: Bacillus subtilis (ATCC); experiment: Antimicrobial assay, broth dilution; type: cell-based; settings: B. subtilis
Experimental: (§1) Gram-positive bacteria S. aureus, B. subtilis, and Gram-negative E. coli were used in antimicrobial assays. Bacteria were first grown in LB (Luria-Bertani) broth to an absorbance of 0.8 at 600 nm. The antibacterial behavior of the peptides was studied via the agar disc diffusion assay and broth microdilution method ([41], [42]). The agar plates were made by pouring 20 mL of LB broth containing 1.5% agar into 60-mm Petri dishes. Then, a 100-µL bacterial suspension (10^6 CFU/mL) was spread over the LB agar plate. Ten microliters of the 2-mg/mL peptide sample was carefully dropped onto sterile 2-mm diameter paper discs that had been previously attached to the plate. The plates were carefully placed in an incubator at 37°C for 24 hours. If an examined sample had antimicrobial activity, a clear zone was observed around the filter paper representing inhibition of bacterial growth. The MIC was determined by the broth dilution method, and the absorbance value was measured at an optical density at 600 nm (OD600) to determine the inhibition rate of peptides at different concentrations against each bacteria. Then, the MIC at which no visible growth occurred was recorded ([38]). The MIC50 was calculated by GraphPad Prism.

[3] = system: Escherichia coli (ATCC 25922); experiment: Antimicrobial assay, broth dilution; type: cell-based; settings: E. coli
Experimental: as §1

[4] = system: Staphylococcus aureus (ATCC 6538); experiment: Antimicrobial assay, broth dilution; type: cell-based; settings: S. aureus
Experimental: as §1

[5] = system: methyl-β-cyclodextrin-treated RBCs; experiment: Hemolytic activity on cholesterol-depleted erythrocytes; type: cell-based, human; settings: RBCs treated with 7.5 mM methyl-β-cyclodextrin for 2 hours at 37°C
Description: Cholesterol is the main component of the RBC membrane and is important for maintaining its stability ([39]). Plasmodium falciparum infection efficiently depletes the red blood cells of cholesterol, which renders […] membranes susceptible to lysis ([40]). Therefore, methyl-β-cyclodextrin treatment was used to simulate the RBC cholesterol depletion caused by infection with Plasmodium. RBCs were washed once and then resuspended with PBS at 0.5% hematocrit. After treatment with the indicated concentration (7.5 mM) of methyl-β-cyclodextrin (Sigma) in RPMI for 2 hours at 37°C, the treated RBCs were washed with PBS and hemolysis assays were performed as described above. Two independent tests with five technical replicates were performed for each hemolysis assay.

[6] = system: RBCs infected by schizonts of P. falciparum 3D7; experiment: Hemolytic activity on RBCs infected by schizonts; type: cell-based, human; settings: percoll-purified 3D7 schizonts, 2% hematocrit in PBS
Experimental: To test the hemolytic activity of the peptides against RBCs infected by Plasmodium, schizonts of the P. falciparum 3D7 strain were collected. The parasite culture of mainly schizonts was centrifuged and resuspended to 50% hematocrit. Then, the resuspended culture was carefully laid on top of the gradient with 3 mL 70% and 3 mL 40% percoll-sorbitol solution. After centrifugation at 2,300 × g for 20 min at 20°C, schizonts from the 40/70% interface were collected and washed twice with 10× volume of ICM. The collected parasites were resuspended in PBS to 2% hematocrit for hemolysis assay as described above.

[7] = system: Plasmodium falciparum 3D7; experiment: Transmission electron microscope analysis of parasite morphology; type: cell-based; settings: TEM
Experimental: 3D7 strain parasites with parasitemia of 3% ~ 5% at a hematocrit of 2% were planted in 12-well plates, 3 mL/well. A 40-µM concentration of An-cecB or 200 µM An-cecB-1 was added and incubated for 30 min or 60 min. PBS was used as a control.
After incubation, the parasites were washed three times with ICM, and the electron microscope fixative solution (provided by the company) was added to keep the parasites clumped for 2 hours at room temperature. Finally, the samples were sent to a commercial company at 4°C for transmission electron microscope analysis.

[8] = system: Plasmodium berghei (ANKA); type: in vivo; settings: parasitemia on day 4, BALB/c mice
Experimental: The in vivo antimalarial activity of peptides was evaluated using a 4-day suppressive test in P. berghei-infected mouse model mice ([44]). The mice were divided into five groups of six mice. Donor mice were infected with 200 µL of P. berghei parasite inoculum by intraperitoneal injection. Parasitized blood was collected from the tail vein of donor mice and diluted with 0.9% sodium chloride solution. Mice were then infected with saline suspension of 1 × 10^7 parasitized erythrocytes (0.2 mL) by intraperitoneal injection (Day0). Four hours after infection, each of the three groups of mice was treated with peptide by intraperitoneal injection at daily doses of 10, 25, and 50 mg/kg for 4 consecutive days. Positive control mice were treated with chloroquine at daily doses of 10 mg/kg and negative control mice with normal saline. On day 4 (96 hours post infection), the parasitemia of each mouse was determined under a light microscope by examination of Giemsa’s solution-stained thin blood smears prepared from mouse tail blood ([28]). The mean parasitemia in each group of mice was used to calculate the % suppression for each dose using the following formula:
%suppression = (parasitemia of negative control − parasitemia of test) * 100/parasitemia of negative control.
The antimalarial activity of the peptides was determined from the ratio of the percentage of parasite reduction in treated and negative control groups ([44]). Results were expressed as median (range) values.

[9] = system: HEK293T cells
Experimental: The mammalian cell lines HepG2 and HEK293T were used for cytotoxicity tests. The cells were cultured in Dulbecco’s modified Eagle medium supplemented with 10% fetal bovine serum and 1% penicillin/streptomycin in an incubator at 37°C with 5% CO2. Cells were seeded at a density of 1 × 10^5 cells/mL per well into a 96-well plate overnight and treated with different concentrations of peptides for 48 hours. To analyze the CC50 of peptides, a series of concentrations of peptides (0, 5, 10, 20, 30, 40, 50, 60, and 70 µM) were set to detect their cytotoxic concentrations. Then, 10% CCK-8 solution was added into each well and incubated for another 2 hours. The absorbance was monitored by a microplate reader at 450 nm. PBS was used as a negative control and the inhibition of each drug was normalized to that of the PBS control. CC50 was calculated by GraphPad Prism. Two independent assays with three technical replicates each time were conducted.

[10] = 200 µM peptide, 3D7, Giemsa smears
[11] = 40 µM An-cecB or 200 µM An-cecB-1, total 20 / 22
[12] = 50 µM peptide, 72 h, ring stage, 1% parasitemia, 2% hematocrit, Giemsa smears

## APRWKFGKRLEKLGRNVF-NH2 [An-cecB-1]
[1]; [10]
  inhibition rate: 83.67%
[1]; 3D7, 72 h incubation, Giemsa smears, GraphPad Prism, two independent assays, three technical replicates
  IC50: 68.6 µM
[2]; OD600
  MIC: 25 µM
[2]; OD600, GraphPad Prism
  MIC50: 18.94 µM
[3]; OD600
  MIC: 25 µM
[3]; OD600, GraphPad Prism
  MIC50: 12.7 µM
[4]; OD600
  MIC: > 200 µM
[4]; OD600, GraphPad Prism
  MIC50: > 200 µM
[5]
  hemolysis of cholesterol-depleted erythrocytes: no hemolysis effect
[6]
  hemolytic activity to infected erythrocytes: did not
[7]; 40 µM An-cecB or 200 µM An-cecB-1, 30 or 60 min, total 20 (An-cecB), 22 (An-cecB-1)
  Normal (number of parasites): 7
[7]; [11]
  Disintegration (number of parasites): 0
  Parasite disoriented (number of parasites): 0
  Parasite membrane dissolution (number of parasites): 2
  Parasite shrunken (number of parasites): 15
  Vacuole formation (number of parasites): 7
[8]; 10 mg/kg daily i.p. for 4 consecutive days
  Inhibition (%) of P. berghei growth: 17.03%
[8]; 25 mg/kg daily i.p. for 4 consecutive days
  Inhibition (%) of P. berghei growth: 39.35%
[8]; 50 mg/kg daily i.p. for 4 consecutive days
  Inhibition (%) of P. berghei growth: 54.19%
[9]
  cytotoxicity to HEK293T cells: No cytotoxicity

## GKRLEKLGRNVFRAAKK-NH2 [An-cecB-3]
[1]; [10]
  inhibition rate: 24.74%
[9]
  cytotoxicity to HEK293T cells: No cytotoxicity

## GRLKKLGKKIEGAGKRVFKAA EKALPVVAGVKAL-NH2 [An-cecA]
[1]; [12]
  inhibition rate: 18.7%

## RAAKKALPVIAGYKAL-NH2 [An-cecB-2]
[1]; [10]
  inhibition rate: 12.14%
[9]
  cytotoxicity to HEK293T cells: No cytotoxicity

## RRFKKFLKKVEGAGRRVANAA QKGLPLAAGVKGL-NH2 [An-cecC]
[1]; [12]
  inhibition rate: 40.16%
